Inhibition data for three compounds are collected here from PMC8790593, “Synthesis of broad-specificity activity-based probes for exo-β-mannosidases” (Organic & Biomolecular Chemistry, 2021).

Like-named read-outs stand apart in the source and are kept apart here.

What all share (assay type): biochemical
Holding throughout (conditions): read-out: % inhibition at 1 mM

Experiment [1] addresses T1, BsGH164 (Bacteroides salyersiae, UniProt I9SUA3).
T1 construct: gene HMPREF1071_03408; recombinant pET28-His6-BsGH164, E. coli, His6 kept; GH164 exo-beta-mannosidase
T1 sequence (I9SUA3 20-673): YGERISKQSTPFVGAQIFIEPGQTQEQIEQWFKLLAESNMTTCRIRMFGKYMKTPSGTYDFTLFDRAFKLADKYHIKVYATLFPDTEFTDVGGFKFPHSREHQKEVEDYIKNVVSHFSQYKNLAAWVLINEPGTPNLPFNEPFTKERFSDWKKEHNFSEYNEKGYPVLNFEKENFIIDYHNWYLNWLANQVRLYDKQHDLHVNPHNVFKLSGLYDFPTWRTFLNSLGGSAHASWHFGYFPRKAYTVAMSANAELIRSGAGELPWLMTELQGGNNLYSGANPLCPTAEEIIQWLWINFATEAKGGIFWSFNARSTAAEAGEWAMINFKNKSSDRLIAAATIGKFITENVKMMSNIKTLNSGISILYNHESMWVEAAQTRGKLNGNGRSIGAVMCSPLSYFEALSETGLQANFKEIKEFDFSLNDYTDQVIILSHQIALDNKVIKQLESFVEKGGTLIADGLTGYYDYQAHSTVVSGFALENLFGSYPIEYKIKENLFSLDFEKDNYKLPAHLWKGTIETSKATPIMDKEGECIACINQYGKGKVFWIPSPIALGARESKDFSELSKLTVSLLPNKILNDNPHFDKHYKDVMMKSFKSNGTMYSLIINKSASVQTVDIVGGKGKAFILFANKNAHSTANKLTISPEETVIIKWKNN
In words: residual activity with 4MU-beta-Man after preincubation; covalent crystal structure ([…] A) and intact MS.

Experiment [2] concerns the target T2, CmMan5A (Cellvibrio mixtus, UniProt Q6QT42).
T2 construct: gene man5A; recombinant, codon-optimised gene in pET24a (NdeI/XhoI), C-terminal 6xHis, E. coli; matches previously crystallised form; GH5
T2 sequence (Q6QT42 26-456): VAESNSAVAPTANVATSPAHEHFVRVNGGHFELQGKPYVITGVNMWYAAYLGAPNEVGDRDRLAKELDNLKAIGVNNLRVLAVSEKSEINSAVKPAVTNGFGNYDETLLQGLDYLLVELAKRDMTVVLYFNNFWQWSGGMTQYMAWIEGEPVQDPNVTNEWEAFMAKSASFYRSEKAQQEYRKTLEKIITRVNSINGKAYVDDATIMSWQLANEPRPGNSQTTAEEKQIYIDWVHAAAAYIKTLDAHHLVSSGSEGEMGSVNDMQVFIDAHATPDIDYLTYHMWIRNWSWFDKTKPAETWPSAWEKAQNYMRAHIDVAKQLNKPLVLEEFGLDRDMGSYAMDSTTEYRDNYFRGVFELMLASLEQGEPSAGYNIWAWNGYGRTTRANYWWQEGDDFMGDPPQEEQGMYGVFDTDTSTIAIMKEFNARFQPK
In words: residual activity with 4MU-beta-Man after preincubation; intact MS.

Experiment [3] has as its target T1, BsGH164. In words: residual activity with 4MU-beta-Man after preincubation; covalent crystal structure ([…] A) and intact MS. The source holds these as a separate data set.
Experiment [4] concerns the target T2, CmMan5A. The description is as above.
Experiment [5] addresses T3, BtMan2A (Bacteroides thetaiotaomicron, UniProt Q8AAK6).
T3 construct: gene BT_0458; recombinant pET28a-BtMan2A-His6, E. coli, His tag kept; GH2 exo-beta-mannosidase
T3 sequence (Q8AAK6 26-864): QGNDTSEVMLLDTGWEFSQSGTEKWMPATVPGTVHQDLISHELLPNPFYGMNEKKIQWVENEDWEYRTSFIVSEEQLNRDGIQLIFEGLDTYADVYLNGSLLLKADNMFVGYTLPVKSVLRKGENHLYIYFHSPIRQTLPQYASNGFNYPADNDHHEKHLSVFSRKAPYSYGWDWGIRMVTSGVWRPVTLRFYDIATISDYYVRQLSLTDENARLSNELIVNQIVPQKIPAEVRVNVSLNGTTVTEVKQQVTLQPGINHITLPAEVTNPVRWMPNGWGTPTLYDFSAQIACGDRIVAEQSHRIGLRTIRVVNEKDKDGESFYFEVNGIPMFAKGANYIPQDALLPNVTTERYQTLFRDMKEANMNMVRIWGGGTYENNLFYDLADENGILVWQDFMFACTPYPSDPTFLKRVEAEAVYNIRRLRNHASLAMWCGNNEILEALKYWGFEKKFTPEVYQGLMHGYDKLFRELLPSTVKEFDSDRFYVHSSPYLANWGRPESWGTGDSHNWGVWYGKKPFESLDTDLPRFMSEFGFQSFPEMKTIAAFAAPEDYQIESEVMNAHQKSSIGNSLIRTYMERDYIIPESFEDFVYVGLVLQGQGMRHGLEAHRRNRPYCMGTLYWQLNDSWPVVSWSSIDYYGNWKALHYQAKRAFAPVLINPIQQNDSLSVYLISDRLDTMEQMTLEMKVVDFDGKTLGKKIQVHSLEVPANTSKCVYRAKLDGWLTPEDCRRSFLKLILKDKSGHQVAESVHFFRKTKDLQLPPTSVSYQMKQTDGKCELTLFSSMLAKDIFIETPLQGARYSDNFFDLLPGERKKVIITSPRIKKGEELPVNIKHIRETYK
Described as above.

In general, inhibition refers to the change of the read-out against control, counted positive when it falls.

In the case of `OC[C@@H]1[C@@H](O)[C@H](O)[C@H](O)[C@@H]2O[C@H]12` [compound 1, β-D-manno-cyclophellitol], the inhibition at 1000 µM worked out at 76% in experiment [1] and 20% in experiment [2].

As for `OC[C@@H]1[C@@H](O)[C@H](O)[C@H](O)[C@@H]2N[C@H]12` [compound 2, β-D-manno-cyclophellitol aziridine], the inhibition at 1000 µM in experiment [2] was 20%; in experiment [3] it was 30%.

As to `[N-]=[N+]=NCCCCCCCCN1[C@@H]2[C@H](CO)[C@@H](O)[C@H](O)[C@H](O)[C@@H]21` (stereo partly drawn) [compound 3, N-octylazido aziridine 3], the inhibition at 1000 µM in experiment [4] and in experiment [5] was 85% in each case.
